Columns and labels:
[1] = Capture of the hydroxyl radical: Fenton reaction, oxidative degradation of deoxyribose (532 nm); assay type: biochemical; conditions: for k Obtained (speed constant of the reaction with OH°): individual values of 2 or 3 tests; for k Obtained (speed constant of the reaction with OH°) / Mean k (speed constant of the reaction with OH°): pH 7.4, 37° C.; for Mean k (speed constant of the reaction with OH°): mean of 2 or 3 tests; for speed constant with respect to mannitol: ratio to mannitol
Description: The Fenton reaction, the catalytic decomposition of hydrogen peroxide (H2 O2) by the action of Fe^2+, has been used to produce the hydroxyl radical Because of its widespread use, the test of oxidative degradation of deoxyribose has been selected for our study. The hydroxyl radical generated by the Fenton reaction degrades the deoxyribose and produces malonaldehyde which forms a colored complex with thiobarbituric acid. This complex is quantified by colorimetry at a wavelength of 532 nm. This methodology can be represented by the following scheme: [drawing 11] The speed constants have been determined by using the Halliwell method with modifications. The final kinematic equation is the following [formula] A and A0 : absorbances at 532 nm of the complex in the presence and in the absence of the studied derivative. kS and kd : speed constants of the reaction of OH° with the studied derivative and deoxyribose. S and D: concentrations of studied derivative and of deoxyribose. kx : term representing the reactivity of the radical OH° reacting with reagents of the Fenton reaction. In tracing the straight line 1/A as a function of the concentration S, the speed constant kS is determined. […] The reaction is initiated by the addition of the iron EDTA complex (0.13 mM (NH4)2 Fe(SO4)2; 0.143 mM EDTA). After 15 mins. of incubation at 37° C., the reaction is stopped by the addition of 1.5 ml of cold trichloroacetic acid (TCA) (2.8%). 1 ml of this solution is mixed with 1 ml of thiobarbituric acid (TBA) (1% in 0.05M NaOH) and heated for 15 mins. at 100° C. Then, the specimens are cooled and quantified at 532 nm.

[2] = Sensing superoxide anion: auto-oxidation of adrenaline (adrenochrome at 480 nm); assay type: biochemical; conditions: for % of inhibition: pH 10.2; for IC50: superoxide anion, adrenaline auto-oxidation, read-out: concentration at which there is obtained 50% inhibition
Description: The methods used can produce selectively a chosen type of FR (superoxide anion or hydroxyl radical). The detector must be able to detect proportionally all the FR formed.
Step of production and detection of FR: the radicular source supplies the free radical which will react with a detector to form a modified detector. This latter could be quantified directly or after interaction with an analytic reaction complement by spectrophotometric analysis. [drawing 9]
Determination either of the percent of sensing or of the speed constant of the sensor: a sensor enters into competition with the detector to form a modified sensor. There is obtained a reduction of the quantity of the modified detector which gives us, after mathematical analysis, either the speed constant of the reaction of the sensor with the radical, or the percentage of sensing of this radical by the sensor.
The methodology is the auto-oxidation of adrenaline: adrenaline plays the double role of producing superoxide anion and serving as a detector. Adrenaline which is stable at acid pH, oxidizes spontaneously at alkaline pH. This complex reaction gives after several steps, adrenochrome. The superoxide anion participates in it as an oxidizing agent. The formation of adrenochrome is followed at 480 nm. [drawing 10] Capture of the superoxide anion: oxidation of adrenaline
The reaction medium is constituted by 3.1 ml of sodium carbonate (0.05M) at pH 10.2 containing EDTA (0.1 mM). The oxidation reaction is initiated by the addition of 0.2 ml of adrenaline (0.01M, in 0.02N HCl). The formation of adrenochrome is followed for 2 mins. at 480 nm. The compounds to be studied are added with the aide of 0.02 ml of DMSO, before the addition of adrenaline.
The capacity of the substances to sense the superoxide anion is expressed in terms of percentage of inhibition (%I). [formula] A0 and A are respectively the absorbance of the detector modified in the absence and in the presence of the derivative studied.

[3] = literature value; cited from earlier work
[4] = topical application, cited from earlier work
keratinocytes, hair = conditions: topical, cited from earlier work
[5] = apart from SOD; cited from earlier work

Row | IC50 [2] [µM] | Compound | k Obtained (speed constant of the reaction with OH°) [1] | Mean k (speed constant of the reaction with OH°) [1] | % of inhibition ([2]; Conc. 0.1 mM) [%] | % of inhibition ([2]; Conc. 0.2 mM) [%] | % of inhibition ([2]; Conc. 0.3 mM) [%] | % of inhibition ([2]; Conc. 0.5 mM) [%] | % of inhibition ([2]; Conc. 0.6 mM) | Literature k (speed constant of the reaction with OH°) [3] | further results
1 | ~670 | CSCCC(NC(C)=O)C(=O)Nc1cc(N2CCCCC2)nc(NC(=O)C(CCSC)NC(C)=O)[n+]1[O-] (racemic) [Disubstituted (N-acetyl-methionine), diamide of 2,4-diamino-6-piperidinopyrimidine-3-oxide and N-acetyl-D,L-methionine] | 19.40-19.50 10^9 M^-1.s^-1 | 19.45 10^9 M^-1.s^-1 | 10.56 | 15.62 | 25.99 | 38.71 | 43.75% | – | speed constant with respect to mannitol [1]: more than eleven times; % of inhibition ([2]; Conc. 0.4 mM): 30.77%; % of inhibition ([2]; Conc. 0.7 mM): 53.22%
2 | – | CSCCC(NC(C)=O)C(=O)Nc1cc(N2CCCCC2)nc(N)[n+]1[O-] (racemic) [Monosubstituted (N-acetyl-methionine), amide of 2,4-diamino-6-piperidinopyrimidine-3-oxide and N-acetyl-D,L-methionine] | 13.10-13.40 10^9 M^-1.s^-1 | 13.25 10^9 M^-1.s^-1 | 7.57 | 14.49 | 19.38 | 27.17 | 32.01% | – | % of inhibition ([2]; Conc. 0.4 mM): 25.71%; % of inhibition ([2]; Conc. 0.6 mM, listed as monosubstituted compound): 32%
3 | – | CSCC[C@H](N)C(=O)O [Methionine] | 5.02-5.36 10^9 M^-1.s^-1 | 5.19 10^9 M^-1.s^-1 | – | – | – | – | – | 6.5 10^9 M^-1.s^-1 | –
4 | ~250 | Nc1cc(N2CCCCC2)nc(N)[n+]1[O-] [Minoxidil, 2,4-diamino-6-piperidinopyrimidine-3-oxide] | 10.20-11.40 10^9 M^-1.s^-1 | 10.80 10^9 M^-1.s^-1 | 25.62 | 41.86 | 57.20 | 74.12 | 82.70% | – | % of inhibition ([2]; Conc. 0.05 mM): 11.71%; average quantity of the applied dose reaching the blood stream ([4]; average): 1.4%; quantity of the applied dose reaching the blood stream, range ([4]; range of values): 0.3 to 4.5%; growth of keratinocytes and of hair (keratinocytes, hair; certain subjects having androgenic alopecy): stimulates the in vitro and in vivo growth of keratinocytes, and the growth of hair; time of use to appearance of the growth phenomenon (keratinocytes, hair; varies as a function of the subjects): about four months (or more)
5 | – | Nc1cc(N2CCCCC2)nc(N)n1 [Reduced minoxidil] | 8.47-9.16 10^9 M^-1.s^-1 | 8.81 10^9 M^-1.s^-1 | – | – | – | – | – | – | speed constant with respect to mannitol [1]: five times
6 | – | OC[C@@H](O)[C@@H](O)[C@H](O)[C@H](O)CO [Mannitol] | 1.52-1.84 10^9 M^-1.s^-1 | 1.68 10^9 M^-1.s^-1 | – | – | – | – | – | 1.8 10^9 M^-1.s^-1 | –
7 | ~51 | N[C@@H](CS)C(=O)O [cysteine] | – | – | – | – | – | – | – | – | reactivity with respect to the superoxide anion [5]: most reactive with respect to the superoxide anion; % of inhibition ([2]; cysteine 0.005 mM): 6.52%; % of inhibition ([2]; cysteine 0.008 mM): 8.58%; % of inhibition ([2]; cysteine 0.01 mM): 9.61%; % of inhibition ([2]; cysteine 0.03 mM): 31.72%; % of inhibition ([2]; cysteine 0.04 mM): 34.45%; % of inhibition ([2]; cysteine 0.05 mM): 46.71%; % of inhibition ([2]; cysteine 0.06 mM): 51.93%; % of inhibition ([2]; cysteine 0.07 mM): 57.17%
8 | – | CSCC[C@H](NC(C)=O)C(=O)O [N-acetyl-methionine] | – | 6.02 10^9 M^-1.s^-1 | – | – | – | – | not observed activity | 6.7 10^9 M^-1.s^-1 | inhibition ([2]; 2 mM): 10%

Source: US5801150A, “Aminopyri(mi)dine derivatives combined with amino acids, and pharmacological activities thereof” (priority 1993, dated 1998)
